Measurements: PubChem BioAssay (NCI)
Values joined by “and” are separate entries in the source; they are usually repeats but may differ in a detail not shown here. Identical values can stand only once.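 1) Cells in 96-well plates. 2) Compound, 48 h, 5 concentrations. 3) Linear interpolation between surrounding doses. 4) Unreached endpoint = highest concentration. Abbreviation: GI50, concentration required for 50% inhibition of growth. TGI: total growth inhibition.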

Columns and labels:
Assay in all cases: NCI-60 cell line screen, 48 h
OVCAR-3 ovarian = system: OVCAR-3 ovarian
RXF 393 renal = system: RXF 393 renal
MOLT-4 leukemia = system: MOLT-4 leukemia
LOX IMVI melanoma = system: LOX IMVI melanoma
M14 melanoma = system: M14 melanoma
NCI/ADR-RES ovarian = system: NCI/ADR-RES ovarian
BT-549 breast = system: BT-549 breast
KM12 colon = system: KM12 colon
MDA-MB-435 = system: MDA-MB-435
T-47D breast = system: T-47D breast

Row | SMILES | GI50 (OVCAR-3 ovarian) | TGI (OVCAR-3 ovarian) | GI50 (RXF 393 renal) | TGI (RXF 393 renal) | GI50 (MOLT-4 leukemia) | TGI (MOLT-4 leukemia) | GI50 (LOX IMVI melanoma) | TGI (LOX IMVI melanoma) | GI50 (M14 melanoma) | TGI (M14 melanoma) | GI50 (NCI/ADR-RES ovarian) | TGI (NCI/ADR-RES ovarian) | GI50 (BT-549 breast) | TGI (BT-549 breast) | GI50 (KM12 colon) | TGI (KM12 colon) | GI50 (MDA-MB-435) | TGI (MDA-MB-435) | GI50 (T-47D breast) | TGI (T-47D breast)
1 | COc1cc(-c2nn(-c3ccc(NC(=O)c4ccc(Cl)c(Cl)c4)cc3)cc2-c2ccncc2)ccc1Cl | > 100 µM | > 100 µM | 1.5 µM | 4.53 µM | 5.29 µM | > 100 µM | 2.76 µM | > 100 µM | 22.4 µM | > 100 µM | 7.16 µM | > 100 µM | > 100 µM | > 100 µM | 5.97 µM | > 100 µM | 7.14 µM | > 100 µM | 3.76 µM | > 100 µM
2 | Cc1c2c(nn1-c1ccc(S(=O)(=O)NC(=S)Nc3ccccc3)cc1)-c1ccccc1CC2 | 36.8 µM | > 50 µM | > 50 µM | > 50 µM | > 50 µM | > 50 µM | 25.8 µM | > 50 µM | > 50 µM | > 50 µM | > 50 µM | > 50 µM | > 50 µM | > 50 µM | 25.6 µM | > 50 µM | 14.4 µM | > 50 µM | > 50 µM | > 50 µM
3 | CCN(CC)CCOc1nc2ccc(OC)cc2c2c1-c1ccc(OC)cc1C2=O | 0.872 µM | 2.15 µM | 1.21 µM | 2.55 µM | 0.283 µM | 1.85 µM | 0.513 µM | 1.88 µM | 1.42 µM | 3.1 µM | 0.848 µM | 2.85 µM | 5.94 µM | 18 µM | 0.519 µM | 1.77 µM | 0.69 µM | 2.09 µM | 11 µM | 26.3 µM
4 | ClCc1cccc(Cn2cnc3c(Cl)ncnc32)c1 | 1.63 µM | 3.05 µM | 2.28 µM | 24 µM | 15.8 µM | 37.4 µM | 1.96 µM | 5.02 µM | 1.66 µM | 3.31 µM | 2.43 µM | 7.62 µM | 15.3 µM | 30.2 µM | 3.47 µM | 13.4 µM | 1.69 µM | 3.29 µM | 3.02 µM | 12.3 µM
5 | CNc1ccc2nc3ccc(=[N+](C)C)cc-3sc2c1 | 0.408 µM and 0.205 µM |  | 3.53 µM and 5.32 µM | 11.4 µM and 14.3 µM | 0.637 µM and 0.667 µM | 12.1 µM and 9.36 µM | 0.443 µM and 0.368 µM | 4.47 µM and 2.15 µM | 1.2 µM and 0.347 µM | 12 µM and 1.5 µM | 0.389 µM and 0.298 µM | 9.17 µM and 7.58 µM | 4.87 µM and 5.73 µM | 20.7 µM and 22.6 µM | 1.15 µM and 0.651 µM | 17.6 µM and 11.6 µM | 0.547 µM and 0.785 µM | 2.33 µM and 2.85 µM | 1.86 µM and 0.489 µM | 8.9 µM and 12.5 µM
6 | C=C1CC2(OC1=O)C(=O)N(CCCCCCCN1C(=O)C3(CC(=C)C(=O)O3)c3ccccc31)c1ccccc12 (centres undefined) | 1.27 µM | 4.07 µM | 0.86 µM | 2.06 µM | 0.267 µM | 5.53 µM | 0.763 µM | 1.54 µM | 1.45 µM | 5.6 µM | 1.68 µM | 8.78 µM | 2.22 µM | 9.14 µM | 3.39 µM | 11.6 µM | 1.29 µM | 3.92 µM | 1.17 µM | 5.02 µM
7 | Cc1ccc(CNc2c3ccccc3nc3ccccc23)cc1 | 2.42 µM | 6.22 µM | 1.68 µM | 3.41 µM | 2.85 µM | 10.5 µM | 1.48 µM | 2.84 µM | 1.53 µM | 3.24 µM | 1.74 µM | 5.35 µM | 2.43 µM | 6.34 µM | 3.4 µM | 12.9 µM | 1.63 µM | 3.1 µM | 1.87 µM | 4.83 µM
8 | CNC(=O)c1cc(OC2CCC(NC(=O)Nc3ccc(Cl)c(C(F)(F)F)c3)CC2)ccn1 (centres undefined) | 10.7 µM | 32 µM | 10.5 µM | 24.5 µM | 4 µM | 21.5 µM | 4.96 µM | 22.2 µM | 5.47 µM | 20.6 µM | 5.67 µM | 44.3 µM | 7.8 µM | 23.6 µM | 0.713 µM | 14 µM | 4.16 µM | 24.8 µM | 5.31 µM | 39.4 µM
9 | O=[N+]([O-])C1C(c2ccccc2)C12c1ccccc1-c1ccccc12 (centres undefined) | 0.783 µM | 3.59 µM | 0.845 µM | 6.24 µM | 0.746 µM | > 26.3 µM | 0.416 µM | 2.47 µM | 0.789 µM | 23.7 µM | 0.657 µM | > 23.7 µM | 0.543 µM | 7.32 µM | 0.931 µM | 16.6 µM | 0.188 µM | 0.454 µM | 2.73 µM | 23.2 µM
10 | COc1cc(O)c([C@@H]2C[C@H](CCc3ccc(O)cc3)O[C@H](c3ccc(O)cc3)C2)c(O)c1C(=O)/C=C/c1ccc(O)cc1 | 2.69 µM | 7.16 µM | 2.48 µM | 5.64 µM | 1.44 µM | 4.24 µM | 1.93 µM | 3.63 µM | 3.24 µM | 9.3 µM | 5.53 µM | 25.5 µM | 2.39 µM | 5.34 µM | 9.83 µM | > 35 µM | 3.14 µM | 10.8 µM | 2.93 µM | 9.77 µM
11 | COc1cccc(C2CC(C)(N3CCCC3)Oc3cc4c(cc32)OCO4)c1O (centres undefined) |  | 46.1 µM |  | > 80.6 µM |  | > 73.4 µM |  | > 94.5 µM |  | > 83.8 µM |  | 62.4 µM |  | 87.7 µM |  | > 100 µM |  | 18.4 µM |  | > 100 µM
12 | COc1ccc(-c2nn3ncccc3c2-c2ccnc(Nc3ccc(Cl)c(C(F)(F)F)c3)n2)cc1 | 10.5 µM | > 25 µM | 5.66 µM | > 24 µM | 10.9 µM | > 25 µM | 8.95 µM | > 25 µM | 11.5 µM | > 25 µM | 7.62 µM | > 25 µM | 10.2 µM | > 25 µM | 9.89 µM | > 25 µM | 9.69 µM | > 25 µM | 7.21 µM | > 25 µM
13 | CN1CCN(CN2C(=O)C3C4C=CC(C3C2=O)C2C3C(=O)N(CN5CCN(C)CC5)C(=O)C3C42)CC1 (centres undefined) |  | 48.2 µM and 57.6 µM and 75.5 µM |  | 41.4 µM and 34.7 µM and 36.2 µM |  | 60.6 µM and 51.3 µM and 55.9 µM |  | 35.5 µM and 37.4 µM and 33.8 µM |  | 30.8 µM and 34.2 µM and 40.8 µM |  | 64.5 µM |  | 69.6 µM |  | 41.7 µM and 51.9 µM and > 100 µM |  | 31.3 µM |  | > 100 µM
14 | COc1cc(C2CC(c3ccc(C)cc3)=NN2C=O)ccc1Oc1ccnc2cc(Cl)ccc12 (centres undefined) | > 50 µM | > 50 µM | 4.16 µM | 20.5 µM | > 50 µM | > 50 µM | > 50 µM | > 50 µM | 14.2 µM | > 50 µM | > 50 µM | > 50 µM | 3.96 µM | > 50 µM | > 50 µM | > 50 µM | > 50 µM | > 50 µM | 2.9 µM | 23.5 µM
15 | C=CCn1c2c(c3ccccc3c1=O)C(=O)c1ccccc1-2 |  | > 100 µM |  | > 100 µM |  | 16.8 µM |  | > 100 µM |  | > 100 µM |  | > 100 µM |  | > 100 µM |  | > 100 µM |  | > 100 µM |  | > 100 µM
